Experimental data taken from US9163240B2, “SR-BI mutation as a predictor of low progesterone levels and poor fetal viability during pregnancy” (The Johns Hopkins University, priority 2009, dated 2015).

Legend:
HGL5 cells = experiment: Progesterone secretion in HGL5 granulosa cells (RIA); format: cell-based, human; conditions: for rescue of impaired progesterone secretion in SR-BI KD cells: SR-BI KD cells incubated with the agent
female knockout mice = conditions: probucol added in the chow diet; cited from earlier work

Compound	rescue of impaired progesterone secretion in SR-BI KD cells (HGL5 cells)	further results
CCCC(=O)Nc1ncnc2c1ncn2[C@@H]1O[C@@H]2COP(=O)(O)O[C@H]2[C@H]1OC(=O)CCC [dibutryl cAMP]	did not overcome the defect	–
C=C[C@@]1(C)CC(=O)[C@]2(O)[C@@]3(C)[C@@H](O)CCC(C)(C)[C@@H]3[C@H](O)[C@H](OC(C)=O)[C@@]2(C)O1 [Fo, Forskolin]	–	progesterone secretion higher as compared with DMSO (HGL5 cells; scrambled cells, 24 h, Fo 10 μM, serum 10%, HDL or LDL 50 μg protein/ml, p<0.001): > 2 fold
CC(C)CCC(O)[C@@H](C)[C@H]1CC[C@H]2[C@@H]3CC=C4C[C@@H](O)CC[C@]4(C)[C@H]3CC[C@]12C (stereo partly shown) [22-OH cholesterol, 22-hydroxycholesterol]	did not overcome this impairment	–
CC(C)(Sc1cc(C(C)(C)C)c(O)c(C(C)(C)C)c1)Sc1cc(C(C)(C)C)c(O)c(C(C)(C)C)c1 [probucol]	–	fertility of SR-BI knockout female mice (female knockout mice): restored
